For one series, the system named is CYP1A2. The settings on record: read-out: CYP1A2 Ki; ref Charman et al., 2020 1; cited from earlier work.
Another series relates to UGT1A9. Put plainly: Metabolism by UGT1A9. It counts as in vitro ADME, human. The settings on record: equal contribution assumed. An excerpt: (§1) In nearly all cases the fraction of systemic elimination metabolised by a given enzyme (fm) determined in vitro was unavailable in the literature.
Series [1] is described as follows: In vitro flags for victim and perpetrator properties conferring DDI liability. The settings on record: in vitro flag, mainly based on in vitro determinations. Type of series: in vitro ADME, human.
For series [2] the following is noted: PBPK input; ref Charman et al., 2020 1; cited from earlier work.
Series [3] is described as follows: Fraction unbound in human liver microsomes (fumic). The settings on record: extrapolated from value measured at 0.4 mg/mL to 0.1 mg/mL, method of Austin et al., 2002.
The next series relates to Caco-2 cells. As to conditions: calibrated against propranolol; plasma as medium for atovaquone and piperaquine; ref Charman et al., 2020 1; cited from earlier work.
Series [4] is described as follows: PBPK absorption inputs (fa, ka, tlag, Qgut, Fg). On the set-up: species or system human. The settings on record: for fa: Relative fa (in vivo fasted AUC / fed AUC; Reuter et al., 2015 for DHA, Crevoisier et al., 1997 for mefloquine). An excerpt: Initial models were built based on available physicochemical and in vitro data to give a ‘bottom-up’ prediction. Areas of uncertainty were highlighted, and the potential impact of uncertainty associated with such parameters was investigated using sensitivity analysis. Available clinical PK data were then used to evaluate and, if required, refine the initial ‘bottom-up’ model. Care was taken to split data into training and test sets wherever possible. The model verification strategy differed across compounds based on availability of different types of clinical data. […] Clinical studies used for drug model development and verification are reported in Table S2 (PK) and Table S3 (DDIs).

The next series concerns UGT2B7. Put plainly: Metabolism by UGT2B7. Type of series: in vitro ADME, human. As to conditions: equal contribution assumed.
Excerpt: as §1

For series [5] the following is noted: cited from earlier work.
The conditions of series [6]: cited from earlier work. The source holds these as a separate data set.
The conditions of series [7]: 1987 9, proguanil Jeppesen et al., 1997 34, cited from earlier work.
A further series is described as follows: in vitro. The settings on record: human, plasma.
For series [8] the following is noted: measured (0.4 mg/mL protein where stated); ref Charman et al., 2020 1; cited from earlier work.
The nature of series [9]: Hepatic / HLM intrinsic clearance, enzyme not defined. As to conditions: human, liver microsomes. For orientation: Microsomes from liver hold many membrane-bound enzymes, among them those of drug oxidation.
For a further series, the target named is CYP2C19 (Homo sapiens, UniProt P33261). Put plainly: Metabolism by CYP2C19 (CLint, fm). Type of series: in vitro ADME.
Excerpt: as §1

Series [10] addresses T1, CYP3A4 (Homo sapiens, UniProt P08684).
Excerpt: as §1

The nature of series [11]: Blood to plasma ratio (B:P). The settings on record: PBPK input; unpublished (in-house) data.
For series [12] the following is noted: piperaquine 960 mg SD + clarithromycin 500 mg SD; ref Eurartesim - EMA Website, 12; cited from earlier work.
For a further series, the system named is CYP2C9. Description: Metabolism by CYP2C9 (CLint, fm). Type of series: in vitro ADME, human.
Excerpt: as §1

The target of series [13] is T1, CYP3A4. The settings on record: cited from earlier work.
The target of series [14] is T1, CYP3A4. Description: in vitro.
Series [15] has as its target T1, CYP3A4. Description: CYP3A4 inhibition (direct and time-dependent). The settings on record: Derived from IC50 shift data (single time point), unpublished data.
For series [16] the following is noted: ref Charman et al., 2020 1; cited from earlier work.
A further series has as its system OCT2. As to conditions: read-out: OCT2 Ki; ref Kusuhara et al., 2011 70; cited from earlier work.
For another series, the target named is MATEs. On the set-up: method as in Miyake et al., 2021 71. As to conditions: average of MATE1 and MATE2-K; ref Miyake et al., 2021 71; cited from earlier work.
The next series relates to OCT1. More on the design: method as in Ito et al., 2010 68, Panfen et al., 2019 69. The settings on record: average; ref Ito et al., 2010 68, Panfen et al., 2019 69; cited from earlier work.
[17] abbreviates: HLM CLint 31.6 µL/min/mg with 20% split equally between CYP2C9 and CYP2C19.
Where [18] appears, read: Relative fa (in vivo fasted AUC / high fat fed AUC), EMA Website.

The structures appear in SMILES notation. Where two headings read alike, the source gives them in different places.

T1 sequence (P08684 whole entry): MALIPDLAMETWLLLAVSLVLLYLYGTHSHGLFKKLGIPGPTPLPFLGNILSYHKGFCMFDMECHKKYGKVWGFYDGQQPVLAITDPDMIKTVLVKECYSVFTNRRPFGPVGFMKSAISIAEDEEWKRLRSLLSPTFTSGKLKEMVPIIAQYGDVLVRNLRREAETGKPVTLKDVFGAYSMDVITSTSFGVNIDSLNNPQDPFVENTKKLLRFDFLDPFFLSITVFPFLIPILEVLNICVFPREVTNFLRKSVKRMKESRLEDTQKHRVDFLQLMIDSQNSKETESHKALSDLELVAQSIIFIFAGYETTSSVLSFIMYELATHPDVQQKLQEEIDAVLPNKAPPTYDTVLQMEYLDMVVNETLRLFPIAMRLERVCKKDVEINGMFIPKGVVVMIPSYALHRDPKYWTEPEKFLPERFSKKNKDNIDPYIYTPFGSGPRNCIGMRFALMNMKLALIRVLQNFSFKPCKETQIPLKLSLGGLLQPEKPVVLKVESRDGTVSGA
CYP2C19, sequence (P33261 whole entry): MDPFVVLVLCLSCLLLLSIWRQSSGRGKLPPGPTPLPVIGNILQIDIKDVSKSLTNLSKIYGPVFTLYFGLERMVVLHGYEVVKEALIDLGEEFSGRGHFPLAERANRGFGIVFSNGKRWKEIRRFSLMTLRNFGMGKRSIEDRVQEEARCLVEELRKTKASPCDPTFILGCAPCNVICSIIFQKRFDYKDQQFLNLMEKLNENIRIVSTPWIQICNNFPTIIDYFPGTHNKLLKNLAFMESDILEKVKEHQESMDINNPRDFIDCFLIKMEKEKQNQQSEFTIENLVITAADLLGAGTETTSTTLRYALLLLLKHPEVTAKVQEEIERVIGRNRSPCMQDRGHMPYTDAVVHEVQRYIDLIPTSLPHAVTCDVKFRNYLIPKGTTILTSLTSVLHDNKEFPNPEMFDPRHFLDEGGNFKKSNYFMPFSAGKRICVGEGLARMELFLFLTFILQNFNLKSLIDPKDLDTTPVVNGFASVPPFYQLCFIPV

Consider `C[C@H]1[C@@H](O)O[C@@H]2O[C@@]3(C)CC[C@H]4[C@H](C)CC[C@@H]1[C@@]24OO3` [DHA, dihydroartemisinin], for which the Ki (in general, the equilibrium dissociation constant of an inhibitor or competing ligand from its target) in the series with CYP1A2 is 4.38 µM. Besides, the fmUGT1A9 in the series with UGT1A9 is reported as 50%. For the same compound, the “Risk as a perpetrator” value in series [1] was “CYP1A2 inhibitor”. The “Risk as a victim” value in series [1] was “Substrate of UGT1A9 and UGT2B7”. The Log P (commonly a log measure of how a compound divides between an organic and an aqueous phase) in series [2] is listed as 2.3. For the same compound, the fumic in series [3] is reported as 0.964. Also, the “Caco-2 (Papp A-B)” value with Caco-2 cells is 49 10-6 cm/s. The fa in [4] (listed as DHA (administered as DHA)) amounted to 0.71; in [4] (listed as DHA (administered as artesunate)) it was 1. This compound gave a fmUGT2B7 with UGT2B7 of 50%. The Main binding protein result in [5] (ref amodiaquine, DEAQ Hietala, 2009 2, atovaquone Nixon et al., 2013 13, DHA Batty et al., 2004 41, mefloquine, tafenoquine (also AGP) Zsila et al., 2008 54) is given as “AGP”. The “AUC Obs” value was 907 ng·h/mL in series [6] (4 mg/kg SD, 0-inf, ref Na-Bangchang et al., 2004 20); 370 ng·h/mL in [6] (120 mg SD, 0-inf, ref Chinh et al., 2009 23); 1400 ng·h/mL in series [6] (180 mg SD (artesunate), 0-inf, ref Jittamala et al., 2015 15); 1980 ng·h/mL in series [6] (240 mg SD, 0-inf, ref Le et al., 1999 22); 2018 ng·h/mL in series [6] (300 mg SD, 0-inf, ref Na-Bangchang et al., 1997 21). Further, the “CL PO” value in series [7] (clinically observed oral (in vivo) clearance, pyronaridine: blood, ref amodiaquine Winstanley et al., DEAQ Akande et al., 2015 8, Scarsi et al., 2014 35, Tarning et al., 2012 36, Orrell et al., 2008 37, DHA Na-Bangchang et al., 2004 42, lumefantrine Lefevre et al., 2002 52, Hoglund et al., 2015 53, mefloquine Charles et al., 2007 56, pyronaridine Jittama) is recorded as 273.2 L/h.
Take `Clc1ccc2c(N3CCN(CCCN4CCN(c5ccnc6cc(Cl)ccc56)CC4)CC3)ccnc2c1` [Piperaquine, piperaquine]: in the series “in vitro”, the fraction unbound (usually the share of the substance not bound to proteins or other matrix) is 0.006. The fumic in series [8] is listed as 0.013. Besides, the microsomal CLint (in general, the rate of metabolic loss divided by the concentration) in series [9] was 31.6 µL/min/mg. In series [1], the “Risk as a perpetrator” value was “CYP3A4 time‐dependent inhibitor”. The “Risk as a victim” value in series [1] is “Substrate of CYP3A4, CYP2C9 and CYP2C19”. In addition, the “Log P” value in series [2] was 5.27. Also, the “CLint CYP2C19” value on CYP2C19 (setting [17]) is recorded as 3.16 µL/min/pmol. Also, on CYP2C19 (fraction metabolised used in the PBPK model (proguanil: total, all routes)), the fmCYP2C19 is 10%. Besides, at CYP3A4 [10], the fmCYP3A4 was determined as 80%. The “CLint CYP3A4” value at CYP3A4 [10] (microsomes) is 25.3 µL/min/pmol. In addition, the “Caco-2 (Papp A-B)” value in the series on Caco-2 cells is 233 10-6 cm/s. The “B:P” value in series [11] came out at 0.9. Further, the “AUC ratio Obs” value in [12] was not above 2 fold. Also, in series [12], the “Cmax ratio Obs” value was not above 2 fold. Also, in the series with CYP2C9 (setting [17]), the “CLint CYP2C9” value is reported as 3.16 µL/min/pmol. For the same compound, in the series on CYP2C9 (fraction metabolised used in the PBPK model), the fmCYP2C9 came out at 10%. Further, the “fa - 960 mg fasted” value in series [4] (setting [18]) turned out to be 0.4. The “fa - 1280 mg fasted” value in series [4] (setting [18]) came out at 0.33. In [4] (Relative fa, EMA Website), the “fa - 960 mg fed” value worked out at 1. The “fa - 1280 mg fed” value in series [4] (Relative fa, EMA Website) was 1. For the same compound, at CYP3A4 [13], the Ki was 3 µM. Besides, at CYP3A4 [14], the kinact (as a rule, the maximal first-order rate at which the target is inactivated) was 0.000347 s⁻¹. Also, the “AUC Obs” value in [6] (960 mg QD (fasted, Day 3), 0-72 h, ref Eurartesim S06, Females <75 kg) is 5380 ng·h/mL; in series [6] (960 mg QD (fasted, Day 3), 0-72 h, ref Eurartesim S06, Males <75 kg) it was 3930 ng·h/mL; in series [6] (960 mg QD (fed, Day 3), 0-72 h, ref Eurartesim S06, Females <75 kg) it was 12500 ng·h/mL; in series [6] (960 mg QD (fed, Day 3), 0-72 h, ref Eurartesim S06, Males <75 kg) it was 10700 ng·h/mL; in [6] (1280 mg QD (fasted), 0-72 h, ref Eurartesim S06, Males ≥75 kg), 3930 ng·h/mL; in [6] (1280 mg QD (fed), 0-72 h, ref Eurartesim S06, Males ≥75 kg EMA Website, 33) it was 10700 ng·h/mL. In addition, in [6] (1280 mg SD tetraphosphate salt, 0-72 h, ref EMA Website, 33), the “AUC Obs” value is 3010 ng·h/mL. For the same compound, the “Cmax Obs” value was 505 ng/mL in series [6] (960 mg QD (fasted, Day 3), ref Eurartesim S06, Females <75 kg); 280 ng/mL in series [6] (960 mg QD (fasted, Day 3), ref Eurartesim S06, Males <75 kg); 1270 ng/mL in series [6] (960 mg QD (fed, Day 3), ref Eurartesim S06, Females <75 kg); 1120 ng/mL in series [6] (960 mg QD (fed, Day 3), ref Eurartesim S06, Males <75 kg); 280 ng/mL in series [6] (1280 mg QD (fasted), ref Eurartesim S06, Males ≥75 kg); 1120 ng/mL in series [6] (1280 mg QD (fed), ref Eurartesim S06, Males ≥75 kg EMA Website, 33). Further, the “Cmax Obs” value in series [6] (1280 mg SD tetraphosphate salt, ref EMA Website, 33) was 190 ng/mL. For the same compound, the “CYP3A4 KI” value at CYP3A4 [15] is 0.12 µM.
`CCc1nc(N)nc(N)c1-c1ccc(Cl)cc1` [Pyrimethamine, pyrimethamine]: the “pKa(s)” value in series [16] is given as 6.86. This compound had an intrinsic clearance (microsomal CLint) in series [9] of 1.8 µL/min/mg. In addition, the values for the Ki in the series with OCT2, at MATEs and in the series on OCT1 were 10 µM, 0.124 µM and 2.3 µM, respectively. In addition, in series [1], the “Risk as a perpetrator” value is “OCT2 and MATE inhibitor”. For the same compound, the “Caco-2 (Papp A-B)” value in the series on Caco-2 cells is listed as 59.8 10-6 cm/s. Moreover, in series [5] (PBPK input, ref Charman et al., 2020 1), the fu was 0.095. For the same compound, the “Cmax Obs” value in series [6] (in vivo, 100 mg) is 771 ng/mL. Moreover, the CL renal in series [7] (PBPK input, ref amodiaquine, DEAQ Winstanley et al., atovaquone Rolan et al., 1997 14, azithromycin Lalak et al., 1993 23, carboxyprimaquine Mihaly et al., 1985 26, chloroquine Walker et al., 1987 29, DHA EMA Website, 44, doxycycline Raghuram et al., 1982 48, Nguyen et al., 1989 49, mefloquine Schwartz et al., 1982 57, primaquine White, 1985 62, pyrimeth) was 0.0989 L/h.

These data come from article PMC10508484, “Development and application of a PBPK modeling strategy to support antimalarial drug development” (CPT: Pharmacometrics & Systems Pharmacology, 2023).
